Values quoted from earlier work as cited in patent publication US11717525B2, “Transdermal and/or topical delivery system comprising clobazam” (Alpha to Omega Pharmaceutical Consultants, Inc., priority 2015, dated 2023).

Assays:
[1] = lipophilic in nature
[2] = oral administration
[3] = 25° C., practically insoluble

## CN1C(=O)CC(=O)N(c2ccccc2)c2cc(Cl)ccc21 [Clobazam]
[1]
  Log P: around 2.1
[2]
  absorbed when taken orally: 87%
[3]
  solubility in water: 70 microgram/ml (μg/ml)
